Assay results published in PMC7316778 (Nature Communications, 2020).
“And” between values parts separate entries of the source, which are not always exact repeats. Identical values can stand only once. Like-named read-outs stand apart in the source and are kept apart here.

How the values were obtained:
Experiment in all cases: SelectScreen kinase assay
[1] = biological target: PIK3CB/PIK3R2 (p110 beta/p85 beta) (Homo sapiens, UniProt P42338)
Experimental: (§1) Selectivity profiling assays were performed by the Invitrogen SelectScreen™ Services. […] The concentration of ATP was selected to be equal to the KM, unless indicated otherwise.

PDK1 = biological target: T1, PDK1 (Homo sapiens, UniProt O15530)
T1 sequence (O15530 1-556): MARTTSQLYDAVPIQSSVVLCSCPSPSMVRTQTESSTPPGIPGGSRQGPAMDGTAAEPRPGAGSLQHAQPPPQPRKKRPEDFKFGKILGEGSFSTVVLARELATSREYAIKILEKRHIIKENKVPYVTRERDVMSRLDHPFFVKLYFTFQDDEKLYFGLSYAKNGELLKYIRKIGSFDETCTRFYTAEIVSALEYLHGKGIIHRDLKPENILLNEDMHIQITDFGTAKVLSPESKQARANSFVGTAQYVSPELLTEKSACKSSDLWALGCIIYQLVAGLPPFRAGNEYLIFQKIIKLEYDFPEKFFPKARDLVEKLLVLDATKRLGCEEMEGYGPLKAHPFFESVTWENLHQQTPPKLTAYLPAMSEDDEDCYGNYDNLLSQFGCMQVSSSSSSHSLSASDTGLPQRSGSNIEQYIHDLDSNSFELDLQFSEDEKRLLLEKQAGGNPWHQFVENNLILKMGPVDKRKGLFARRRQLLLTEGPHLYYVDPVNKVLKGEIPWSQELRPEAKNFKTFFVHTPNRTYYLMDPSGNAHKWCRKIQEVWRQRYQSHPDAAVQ
Experimental: as §1

MAPK11 (p38 beta) = MAPK11 (p38 beta) (Homo sapiens, UniProt Q15759)
Chain of MAPK11 (p38 beta) (Q15759 whole entry): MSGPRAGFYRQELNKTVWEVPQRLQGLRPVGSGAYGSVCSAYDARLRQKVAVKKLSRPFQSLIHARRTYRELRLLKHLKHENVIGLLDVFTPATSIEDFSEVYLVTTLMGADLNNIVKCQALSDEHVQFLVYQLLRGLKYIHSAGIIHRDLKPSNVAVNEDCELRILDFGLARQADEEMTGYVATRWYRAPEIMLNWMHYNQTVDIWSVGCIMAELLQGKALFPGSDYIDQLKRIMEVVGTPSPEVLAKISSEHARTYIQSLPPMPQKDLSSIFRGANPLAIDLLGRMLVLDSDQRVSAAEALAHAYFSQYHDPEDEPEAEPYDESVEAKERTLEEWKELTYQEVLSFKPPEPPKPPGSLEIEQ
Experimental: as §1

MINK1 = MINK1 (Homo sapiens, UniProt Q8N4C8)
Chain of MINK1 (Q8N4C8 whole entry): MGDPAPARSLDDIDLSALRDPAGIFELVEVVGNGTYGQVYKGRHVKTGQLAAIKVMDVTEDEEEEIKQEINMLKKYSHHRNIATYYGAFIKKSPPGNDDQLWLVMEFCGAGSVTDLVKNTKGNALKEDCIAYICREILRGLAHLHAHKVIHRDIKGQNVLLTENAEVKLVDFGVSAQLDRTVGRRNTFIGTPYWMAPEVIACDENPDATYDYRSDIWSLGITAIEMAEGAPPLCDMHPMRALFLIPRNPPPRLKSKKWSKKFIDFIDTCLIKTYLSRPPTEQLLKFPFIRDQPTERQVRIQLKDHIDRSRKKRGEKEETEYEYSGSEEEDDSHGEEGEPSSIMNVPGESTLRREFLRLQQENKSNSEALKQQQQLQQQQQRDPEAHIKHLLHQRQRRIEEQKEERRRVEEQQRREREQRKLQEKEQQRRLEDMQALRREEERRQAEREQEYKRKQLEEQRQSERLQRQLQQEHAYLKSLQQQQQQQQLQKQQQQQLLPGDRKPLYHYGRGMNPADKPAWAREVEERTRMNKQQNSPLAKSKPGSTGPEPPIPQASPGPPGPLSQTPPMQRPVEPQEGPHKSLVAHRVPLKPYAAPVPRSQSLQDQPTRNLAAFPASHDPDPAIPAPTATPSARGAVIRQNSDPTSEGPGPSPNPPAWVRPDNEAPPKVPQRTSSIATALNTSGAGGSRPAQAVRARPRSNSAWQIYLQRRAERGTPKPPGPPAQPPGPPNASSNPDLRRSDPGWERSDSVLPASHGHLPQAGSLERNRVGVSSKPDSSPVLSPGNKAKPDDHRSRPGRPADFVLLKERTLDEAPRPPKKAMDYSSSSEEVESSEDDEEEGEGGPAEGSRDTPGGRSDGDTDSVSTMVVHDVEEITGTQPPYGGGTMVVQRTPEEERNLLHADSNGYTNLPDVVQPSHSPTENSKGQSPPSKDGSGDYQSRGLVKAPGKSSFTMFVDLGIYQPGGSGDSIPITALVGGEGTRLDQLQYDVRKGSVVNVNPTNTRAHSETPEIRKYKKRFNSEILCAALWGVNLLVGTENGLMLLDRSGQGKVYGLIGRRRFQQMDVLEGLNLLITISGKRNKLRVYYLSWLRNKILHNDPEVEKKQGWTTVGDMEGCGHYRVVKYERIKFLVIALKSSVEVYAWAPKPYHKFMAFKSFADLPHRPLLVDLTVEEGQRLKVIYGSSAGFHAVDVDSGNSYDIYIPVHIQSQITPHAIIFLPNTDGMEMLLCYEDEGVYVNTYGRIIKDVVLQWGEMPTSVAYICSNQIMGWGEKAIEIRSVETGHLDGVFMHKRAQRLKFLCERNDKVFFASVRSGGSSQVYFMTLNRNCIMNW
Experimental: as §1

HIPK4 = biological target: T2, HIPK4 (Homo sapiens, UniProt Q8NE63)
T2 sequence (Q8NE63 1-616): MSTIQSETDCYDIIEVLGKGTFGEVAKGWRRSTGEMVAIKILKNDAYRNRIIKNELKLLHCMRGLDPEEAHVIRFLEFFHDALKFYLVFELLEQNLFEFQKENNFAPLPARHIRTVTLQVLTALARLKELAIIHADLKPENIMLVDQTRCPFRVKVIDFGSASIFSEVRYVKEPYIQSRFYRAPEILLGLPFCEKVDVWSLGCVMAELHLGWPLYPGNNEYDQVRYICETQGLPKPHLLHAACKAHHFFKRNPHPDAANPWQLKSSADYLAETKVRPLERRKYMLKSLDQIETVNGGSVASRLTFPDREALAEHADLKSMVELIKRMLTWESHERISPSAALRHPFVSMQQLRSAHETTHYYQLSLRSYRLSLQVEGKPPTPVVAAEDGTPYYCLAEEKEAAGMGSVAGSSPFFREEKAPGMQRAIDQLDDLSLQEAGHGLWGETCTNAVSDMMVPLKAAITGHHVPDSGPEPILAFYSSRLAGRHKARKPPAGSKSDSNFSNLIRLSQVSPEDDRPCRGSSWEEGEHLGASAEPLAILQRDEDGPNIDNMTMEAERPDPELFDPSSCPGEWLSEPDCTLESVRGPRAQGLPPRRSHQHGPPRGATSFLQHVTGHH
Experimental: as §1

ADCK3 = ADCK3 (Homo sapiens, UniProt Q8NI60)
Experimental: as §1

SPHK1 = SPHK1 (Homo sapiens, UniProt Q9NYA1)
Chain of SPHK1 (Q9NYA1 whole entry): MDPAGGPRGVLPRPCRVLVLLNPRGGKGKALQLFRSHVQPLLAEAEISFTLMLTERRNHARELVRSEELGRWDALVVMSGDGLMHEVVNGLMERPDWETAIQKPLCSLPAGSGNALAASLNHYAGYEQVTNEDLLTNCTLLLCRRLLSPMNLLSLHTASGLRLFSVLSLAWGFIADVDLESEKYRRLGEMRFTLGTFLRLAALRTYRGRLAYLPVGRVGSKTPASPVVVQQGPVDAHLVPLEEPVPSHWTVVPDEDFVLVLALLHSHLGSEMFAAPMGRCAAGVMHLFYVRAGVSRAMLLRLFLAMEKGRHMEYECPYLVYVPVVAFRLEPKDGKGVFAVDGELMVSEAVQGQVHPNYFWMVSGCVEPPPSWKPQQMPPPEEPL
Experimental: as §1

FYN = FYN (Homo sapiens, UniProt P06241)
Chain of FYN (P06241 whole entry): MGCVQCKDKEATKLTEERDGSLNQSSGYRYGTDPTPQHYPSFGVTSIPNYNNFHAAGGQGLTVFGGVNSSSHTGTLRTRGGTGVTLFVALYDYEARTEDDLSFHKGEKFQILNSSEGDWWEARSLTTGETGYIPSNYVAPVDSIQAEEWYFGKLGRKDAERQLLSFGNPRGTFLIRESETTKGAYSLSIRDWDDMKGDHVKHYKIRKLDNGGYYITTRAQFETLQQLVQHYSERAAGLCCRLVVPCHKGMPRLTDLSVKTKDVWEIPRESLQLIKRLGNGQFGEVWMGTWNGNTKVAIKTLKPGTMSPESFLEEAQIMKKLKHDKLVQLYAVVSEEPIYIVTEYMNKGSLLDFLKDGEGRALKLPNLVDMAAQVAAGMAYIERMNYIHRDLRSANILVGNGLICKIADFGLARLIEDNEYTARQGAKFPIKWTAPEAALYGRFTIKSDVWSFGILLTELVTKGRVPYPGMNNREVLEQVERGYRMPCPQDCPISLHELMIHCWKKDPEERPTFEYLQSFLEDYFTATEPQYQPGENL
Experimental: as §1

EPHA3 = biological target: T3, EPHA3 (Homo sapiens, UniProt P29320)
T3 sequence (P29320 21-983): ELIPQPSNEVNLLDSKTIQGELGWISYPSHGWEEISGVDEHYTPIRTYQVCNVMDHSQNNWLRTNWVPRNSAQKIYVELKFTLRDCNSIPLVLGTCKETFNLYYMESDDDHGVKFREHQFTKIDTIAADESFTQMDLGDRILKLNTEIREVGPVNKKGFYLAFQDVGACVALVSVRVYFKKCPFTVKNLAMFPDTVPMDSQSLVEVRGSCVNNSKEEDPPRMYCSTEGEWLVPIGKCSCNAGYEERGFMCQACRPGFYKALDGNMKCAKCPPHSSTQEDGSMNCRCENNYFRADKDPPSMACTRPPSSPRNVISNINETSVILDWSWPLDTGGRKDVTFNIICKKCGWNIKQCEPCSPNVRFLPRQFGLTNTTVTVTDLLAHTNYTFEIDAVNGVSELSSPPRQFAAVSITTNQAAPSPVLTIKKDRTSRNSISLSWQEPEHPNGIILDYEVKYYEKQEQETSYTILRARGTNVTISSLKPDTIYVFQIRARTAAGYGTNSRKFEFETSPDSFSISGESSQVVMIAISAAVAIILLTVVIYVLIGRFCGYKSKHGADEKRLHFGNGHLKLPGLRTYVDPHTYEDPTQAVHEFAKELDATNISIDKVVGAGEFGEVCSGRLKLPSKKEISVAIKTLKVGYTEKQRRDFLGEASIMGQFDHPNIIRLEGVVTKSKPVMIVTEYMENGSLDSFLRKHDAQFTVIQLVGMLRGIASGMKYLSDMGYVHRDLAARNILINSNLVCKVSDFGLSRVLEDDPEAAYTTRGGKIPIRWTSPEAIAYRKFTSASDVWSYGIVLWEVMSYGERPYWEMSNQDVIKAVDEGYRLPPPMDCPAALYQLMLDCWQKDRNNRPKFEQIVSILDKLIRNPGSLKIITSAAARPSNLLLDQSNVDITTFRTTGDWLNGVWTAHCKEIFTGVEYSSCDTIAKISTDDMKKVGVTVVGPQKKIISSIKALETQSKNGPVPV
Experimental: as §1

FRK (PTK5) = FRK (PTK5) (Homo sapiens, UniProt P42685); conditions: for Inhibition at 1 µM (%): FRK (PTK5), ZLYTE, ATP Km app
Chain of FRK (PTK5) (P42685 whole entry): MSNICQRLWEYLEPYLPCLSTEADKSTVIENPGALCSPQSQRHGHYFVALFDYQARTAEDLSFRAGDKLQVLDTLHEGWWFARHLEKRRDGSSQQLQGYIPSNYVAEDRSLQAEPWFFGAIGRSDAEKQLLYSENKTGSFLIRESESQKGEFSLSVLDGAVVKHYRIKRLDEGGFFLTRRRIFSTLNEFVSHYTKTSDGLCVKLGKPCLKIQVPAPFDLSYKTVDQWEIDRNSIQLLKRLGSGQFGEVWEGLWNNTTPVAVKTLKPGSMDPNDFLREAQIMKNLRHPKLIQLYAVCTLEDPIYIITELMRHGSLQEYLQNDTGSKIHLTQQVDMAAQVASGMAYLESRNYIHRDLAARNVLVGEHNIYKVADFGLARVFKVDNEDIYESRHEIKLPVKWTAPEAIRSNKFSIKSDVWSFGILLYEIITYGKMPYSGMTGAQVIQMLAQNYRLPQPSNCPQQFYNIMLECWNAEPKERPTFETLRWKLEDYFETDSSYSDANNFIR
Experimental: as §1

[2] = 1 h, 1 μM WEL028, 1 h preincubation

Chain of PIK3CB/PIK3R2 (p110 beta/p85 beta) (P42338 whole entry): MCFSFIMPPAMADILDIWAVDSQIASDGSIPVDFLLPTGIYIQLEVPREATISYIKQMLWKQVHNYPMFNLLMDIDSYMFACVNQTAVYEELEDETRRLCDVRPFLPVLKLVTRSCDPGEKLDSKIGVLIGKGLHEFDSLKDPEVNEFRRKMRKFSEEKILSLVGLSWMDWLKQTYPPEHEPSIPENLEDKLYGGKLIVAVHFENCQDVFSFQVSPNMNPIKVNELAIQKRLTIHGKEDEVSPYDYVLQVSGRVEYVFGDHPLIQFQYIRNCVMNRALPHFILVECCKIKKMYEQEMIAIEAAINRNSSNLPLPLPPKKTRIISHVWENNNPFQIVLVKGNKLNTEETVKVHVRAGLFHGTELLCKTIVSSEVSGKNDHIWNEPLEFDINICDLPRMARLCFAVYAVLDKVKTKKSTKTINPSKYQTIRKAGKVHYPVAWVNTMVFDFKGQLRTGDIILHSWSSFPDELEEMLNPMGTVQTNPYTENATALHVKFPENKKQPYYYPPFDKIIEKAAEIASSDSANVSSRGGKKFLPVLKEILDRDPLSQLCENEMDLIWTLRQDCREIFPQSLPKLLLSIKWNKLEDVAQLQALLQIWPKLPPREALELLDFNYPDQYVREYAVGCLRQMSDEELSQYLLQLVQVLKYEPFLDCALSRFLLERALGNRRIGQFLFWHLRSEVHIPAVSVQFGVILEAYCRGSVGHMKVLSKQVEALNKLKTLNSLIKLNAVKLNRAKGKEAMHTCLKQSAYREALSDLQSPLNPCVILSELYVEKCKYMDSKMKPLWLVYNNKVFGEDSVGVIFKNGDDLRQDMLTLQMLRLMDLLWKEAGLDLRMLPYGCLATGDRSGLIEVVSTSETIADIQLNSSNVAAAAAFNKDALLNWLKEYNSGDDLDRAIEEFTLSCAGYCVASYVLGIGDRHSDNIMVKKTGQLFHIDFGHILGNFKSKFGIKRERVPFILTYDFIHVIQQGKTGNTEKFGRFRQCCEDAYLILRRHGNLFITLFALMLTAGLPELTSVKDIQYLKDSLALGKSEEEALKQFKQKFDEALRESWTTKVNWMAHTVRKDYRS
Chain of PIK3CB/PIK3R2 (p110 beta/p85 beta) (O00459 whole entry partner): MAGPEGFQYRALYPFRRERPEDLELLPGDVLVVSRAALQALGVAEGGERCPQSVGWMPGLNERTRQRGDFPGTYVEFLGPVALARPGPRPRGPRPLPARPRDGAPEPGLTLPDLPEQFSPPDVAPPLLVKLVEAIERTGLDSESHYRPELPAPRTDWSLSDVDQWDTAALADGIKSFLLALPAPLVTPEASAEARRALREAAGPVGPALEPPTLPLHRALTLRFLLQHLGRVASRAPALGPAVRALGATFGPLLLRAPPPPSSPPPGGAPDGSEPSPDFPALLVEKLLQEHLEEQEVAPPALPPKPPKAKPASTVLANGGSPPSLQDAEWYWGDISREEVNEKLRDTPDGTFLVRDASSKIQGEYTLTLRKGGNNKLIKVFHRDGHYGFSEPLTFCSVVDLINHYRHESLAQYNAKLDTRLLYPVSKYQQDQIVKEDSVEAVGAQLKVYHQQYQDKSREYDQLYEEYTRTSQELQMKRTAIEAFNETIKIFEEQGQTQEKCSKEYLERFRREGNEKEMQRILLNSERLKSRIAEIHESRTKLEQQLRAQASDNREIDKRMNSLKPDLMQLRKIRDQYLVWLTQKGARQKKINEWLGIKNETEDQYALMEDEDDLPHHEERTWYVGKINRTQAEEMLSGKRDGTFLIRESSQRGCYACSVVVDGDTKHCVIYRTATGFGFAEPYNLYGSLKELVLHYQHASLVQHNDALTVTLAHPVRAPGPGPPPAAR

C#CCOc1ccc(Nc2ncc(Cl)c(Nc3ccccc3NC(=O)C=C)n2)c(OC)c1 [Compound 6]
inhibition at 1 µM [1, 2]: 2% | Inhibition at 1 µM (%) ([1]; PIK3CB/PIK3R2 (p110 beta/p85 beta), 1 µM, Adapta, ATP 10, listed as WEL028, 1 µM): 4% and -1% | inhibition at 1 µM (PDK1; [2]): 36% | Inhibition at 1 µM (%) (PDK1; PDK1, 1 µM, ZLYTE, ATP 100, listed as WEL028, 1 µM): 35% | inhibition at 1 µM (PDK1; read-out: Inhibition at 1 µM (%), PDK1, 1 µM, ZLYTE, ATP 100): 36% | inhibition at 1 µM (MAPK11 (p38 beta); [2]): 6% | Inhibition at 1 µM (%) (MAPK11 (p38 beta); MAPK11 (p38 beta), 1 µM, ZLYTE, ATP Km app, listed as WEL028, 1 µM): 7% | inhibition at 1 µM (MAPK11 (p38 beta); read-out: Inhibition at 1 µM (%), MAPK11 (p38 beta), 1 µM, ZLYTE, ATP Km app): 6% | inhibition at 1 µM (MINK1; [2]): 20% | Inhibition at 1 µM (%) (MINK1; MINK1, 1 µM, ZLYTE, ATP Km app, listed as WEL028, 1 µM): 21% | inhibition at 1 µM (MINK1; read-out: Inhibition at 1 µM (%), MINK1, 1 µM, ZLYTE, ATP Km app): 19% | inhibition at 1 µM (HIPK4; [2]): 14% | Inhibition at 1 µM (%) (HIPK4; HIPK4, 1 µM, ZLYTE, ATP Km app, listed as WEL028, 1 µM): 16% | inhibition at 1 µM (HIPK4; read-out: Inhibition at 1 µM (%), HIPK4, 1 µM, ZLYTE, ATP Km app): 12% | inhibition at 1 µM (ADCK3; 1 h): 2% | inhibition at 1 µM (ADCK3; read-out: Inhibition at 1 µM (%)): 2% | Inhibition at 1 µM (%) (SPHK1; 1 µM, Adapta, ATP Km app, listed as WEL028, 1 µM): 4% and 1% | inhibition at 1 µM (SPHK1; [2]): 2% | inhibition at 1 µM (FYN; [2]): 4% | Inhibition at 1 µM (%) (FYN; FYN, 1 µM, ZLYTE, ATP Km app, listed as WEL028, 1 µM): 0% and 8% | inhibition at 1 µM (EPHA3; [2]): 9% | Inhibition at 1 µM (%) (EPHA3; EPHA3, 1 µM, LanthaScreen Binding, listed as WEL028, 1 µM): 8% | inhibition at 1 µM (EPHA3; read-out: Inhibition at 1 µM (%), EPHA3, 1 µM, LanthaScreen Binding): 10% | inhibition at 1 µM (FRK (PTK5); [2]): 7% | Inhibition at 1 µM (%) (FRK (PTK5)): 11% | Inhibition at 1 µM (%) (FRK (PTK5); listed as WEL028, 1 µM): 4%
